The subject of data set [1] is p53-deficient cancer cell lines. In words: Cytotoxicity assay, p53-deficient (p53mt) cancer cell lines. The data set is classed as cell-based, human. As for the experimental part: (§1) Cells were plated at a density of 5,000 cells/well in a 96 well-plate and then treated with the appropriate drugs at varying concentrations for 24 hours. Media was replenished with media with or without PARP inhibitors and cell were incubated for 96 hours. Cells were stained with 1% Methylene Blue for 30 minutes, rinsed with water, dried and then solubilized in 5% SDS in PBS, and read at 650 nm. IC50 values were generated using GraphPad Prism8 (Version 8.4.2).
(§2) Cytotoxicity Assay: Cells were plated at a density of 5,000 cells/well in a 96 well-plate and then treated with the appropriate drugs at varying concentrations for 24 hours. Media was replenished with media with or without PARP inhibitors and cell were incubated for 96 hours. Cells were stained with 1% Methylene Blue for 30 minutes, rinsed with water, dried and then solubilized in 5% SDS in PBS, and read at 650 nm. IC50 values were generated using GraphPad Prism8 (Version 8.4.2).

Data set [2] has as its system MDA-MB-231 cells. Put plainly: EdU-removal assay / genomic EdU, MDA-MB-231. Format: cell-based, human. Here is the method: (§3) All samples were analyzed on an LSRFortessa Cytometer (BD Biosciences) running FACSDiva (Version 6.1.3), and the data were processed using FCS Express 7 (Version 7.04.0016). For the EdUrd pulse experiments, 300,000 cells per well were seeded in a 6-well plate, and the following day media was replaced with base media containing 5% dialyzed FBS. Cells were then incubated with 10 μM EdUrd for two hours, while untreated cells served as the negative control. Following the two-hour pulse, cells were washed twice with DPBS and the media was replenished. Collection of cells began at t=0 hr up to t=72 hr post EdUrd-pulse. Cells were collected using standard trypsinization, washed in 1% BSA in DPBS, and fixed in 4% paraformaldehyde for 15 minutes. Cells underwent two more washes in 1% BSA/DPBS before being permeabilized in 1× saponin buffer. […] Samples were sorted using a BD LSRFortessa cytometer running FACSDiva (Version 6.1.3), and the data were analyzed using ModFit Lt software (Version 5.0.9). […]
(§4) Cells were grown on glass coverslips (22×22 mm) and treated with inhibitors for various times, then fixed with 4% PFA and permeabilized with 0.05% Triton X-100. […] Fluorescence images were taken with a Plan Apochromat 60×/1.40 NA oil objective at ambient temperature using Nikon TE2000-E inverted microscope equipped with a charge-coupled device camera (CoolSNAP HQ; Photometrics). […]

Data set [3] deals with γH2AX in p53mt MDA-MB-231 cells. In words: DNA damage marker γH2AX, p53mt cancer cells. The data set is classed as cell-based, human. The conditions noted are these: p53mt / p53-deficient cells. Here is the method:
(§5) Cells were grown on glass coverslips (22×22 mm) and treated with inhibitors for various times, then fixed with 4% PFA and permeabilized with 0.05% Triton X-100. For γH2AX staining samples were blocked with 3% milk in PBS for 30 min at room temperature (RT), and then incubated for 1 h with antibodies to γH2AX (1:400) in 1% milk/PBS followed by incubation with Texas red-conjugated secondary antibody (1:500) for 30 min at RT. For evaluation of genomic EdU, cells were grown on glass coverslips, and then pulse-labeled with EdUrd as described for flow cytometry. Cells were fixed at various times with 4% PFA and permeabilized with 0.05% Triton X-100, and then EdU was labeled with Cy3 azide using ‘click-it’ reaction as described above. DNA was labeled with Hoechst 33342 before mounting on glass slides. Fluorescence images were taken with a Plan Apochromat 60×/1.40 NA oil objective at ambient temperature using Nikon TE2000-E inverted microscope equipped with a charge-coupled device camera (CoolSNAP HQ; Photometrics). The images were acquired using MetaVue imaging software (v7.7.3, Molecular Devices). Experiments were repeated twice with representative images shown.
Immunoblotting: Tumor cells were seeded in a 6-well plate at 300,000 cells/well and treated with various reagents. […] Protein concentrations in lysates were quantitated and 15 μg of protein/lane were resolved on a 10% SDS-PAGE gel. […]

The test system of another data set is γH2AX in MCF10A cells. In words: DNA damage marker γH2AX, p53wt MCF10A. Format: cell-based, human. As for the experimental part:
as §5
(§6) Immunoblotting: Tumor cells were seeded in a 6-well plate at 300,000 cells/well and treated with various reagents. Whole-cell lysates were prepared using NP40 lysis buffer containing PMSF, Na-Orthovanadate, and protease inhibitor cocktail. Snap-frozen tumor tissues were ground and suspended in NP40 lysis buffer. Protein concentrations in lysates were quantitated and 15 μg of protein/lane were resolved on a 10% SDS-PAGE gel. Proteins were transferred onto a nitrocellulose membrane in 10% Methanol-SDS buffer and probed with appropriate antibodies. ECL reagent was used to visualize immune-complexes on radiographic films.

Data set [4] in a line: Cytotoxicity assay (methylene blue), MCF10A. The conditions noted are these: human, MCF10A cells (p53wt), single agent, read-out: IC50, cytotoxicity, drug alone. The data set is classed as cell-based, human. Here is the method: as §1, §2
The subject of data set [5] is MDA-MB-231 cells. Put plainly: Cytotoxicity assay (methylene blue), MDA-MB-231. Format: cell-based, human. The note with it: single agent, read-out: IC50, cytotoxicity, drug alone. Here is the method:
as §1, §2

Data set [6] deals with p53-p21 signaling in MCF10A cells. Put plainly: p53-p21 signaling immunoblot, MCF10A. The data set is classed as cell-based, human. The conditions noted are these: for p53-p21 signaling response: MCF10A (p53wt). As for the experimental part: as §6
(In general: Immunoblotting shows a protein as a band on a membrane.)

Data set [7] addresses thymidylate synthase (TS) (Homo sapiens, UniProt P04818). The conditions noted are these: cited from earlier work.
The subject of data set [8] is MCF10A cells. Put plainly: Cytotoxicity assay (methylene blue), MCF10A. The conditions noted are these: MCF10A (p53wt), single agent; read-out: IC50, cytotoxicity, drug alone. The data set is classed as cell-based, human. As for the experimental part: as §1, §2
The test system of data set [9] is MCF10A cells. Put plainly: EdU-removal assay, MCF10A. The note with it: 0.5 μM Olaparib after 2 hr EdU pulse. The data set is classed as cell-based, human. As for the experimental part: as §3, §4
Data set [10] relates to p53-p21 signaling in MDA-MB-231 cells. Put plainly: p53-p21 signaling immunoblot, MDA-MB-231. The note with it: MDA-MB-231 (p53mt). Format: cell-based, human. As for the experimental part: as §6
The subject of data set [11] is BRCA1-deficient cell lines. The note with it: cited from earlier work.
Data set [12] has as its system MDA-MB-231 cells. Put plainly: Cell cycle analysis by flow cytometry, p53mt cancer cells. The data set is classed as cell-based, human. Here is the method: as §3
(§7) Flow cytometry: All samples were analyzed on an LSRFortessa Cytometer (BD Biosciences) running FACSDiva (Version 6.1.3), and the data were processed using FCS Express 7 (Version 7.04.0016). […] Samples were sorted using a BD LSRFortessa cytometer running FACSDiva (Version 6.1.3), and the data were analyzed using ModFit Lt software (Version 5.0.9). […]
(In general: In flow cytometry, cells or beads pass a laser one at a time.)

The subject of another data set is MDA-MB-231 tumors. The data set is classed as in vivo. The conditions noted are these: 5 days-on, 2 days-off. Here is the method:
Tumor growth was monitored by measuring tumor diameters with electronic calipers twice/week. Volumes were calculated using the formula (length)×(width)2/2. Mouse weights were measured twice/week. […] Drugs were given at 50 mg/kg by oral gavage on schedule 5-days-on and 2-days-off. At the endpoint, mice were euthanized and subjected to necropsy and organ collection. Tumor tissues were collected for RNA and protein analyses by snap-freezing in liquid nitrogen. Blood was collected for CBC by cardiac puncture.
Statistical significance of data comparisons were determined using the Student's unpaired t-test with a two-tailed distribution. Statistical significance was achieved when P<0.05. […]

The subject of the next data set is MIAPACA-2 tumors. In words: MIAPACA-2 subcutaneous pancreatic cancer xenograft in mice. Format: in vivo. The note with it: 50 mg/kg each drug, oral gavage, 5 days-on, 2 days-off. As for the experimental part: Tumor growth was monitored by measuring tumor diameters with electronic calipers twice/week. […] Drugs were given at 50 mg/kg by oral gavage on schedule 5-days-on and 2-days-off. At the endpoint, mice were euthanized and subjected to necropsy and organ collection. Tumor tissues were collected for RNA and protein analyses by snap-freezing in liquid nitrogen. Blood was collected for CBC by cardiac puncture.
Statistical significance was achieved when P<0.05.

Data set [13] relates to PARylation activity in MCF10A and MDA-MB-231 cells. Put plainly: Inhibition of PARylation activity in cell culture (immunoblot). The conditions noted are these: 24 hrs. The data set is classed as cell-based, human. As for the experimental part: as §6
The subject of data set [14] is MCF10A cells. Put plainly: Cell cycle analysis by flow cytometry, MCF10A. Format: cell-based, human. The conditions noted are these: MCF10A (p53wt). Here is the method: as §3, §7
Setting [15] is: Homo sapiens, MDA-MB-231, MDA-MB-231 (p53mt).

Structures are written as SMILES. “And” between values parts separate entries of the source, which are not always exact repeats. Equal values may be shown once. “Also recorded” adds a separate entry of the source. Read-outs that look alike come from different tables or passages of the source. Where only a bound is given, the exact number is not on record here.

A word on the IC50: it is the midpoint of a concentration-inhibition curve.

Chain of thymidylate synthase (TS) (P04818 whole entry, species assumed): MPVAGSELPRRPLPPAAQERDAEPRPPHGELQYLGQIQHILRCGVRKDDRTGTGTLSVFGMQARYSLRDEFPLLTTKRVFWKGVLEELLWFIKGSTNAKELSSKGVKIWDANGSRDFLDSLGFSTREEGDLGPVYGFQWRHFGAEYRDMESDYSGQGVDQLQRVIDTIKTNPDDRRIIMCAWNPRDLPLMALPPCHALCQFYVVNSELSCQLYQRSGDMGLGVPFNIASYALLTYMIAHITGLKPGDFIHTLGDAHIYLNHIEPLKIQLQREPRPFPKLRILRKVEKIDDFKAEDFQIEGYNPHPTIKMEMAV

Consider `O=c1[nH]cc(F)c(=O)[nH]1` [5FU, 5-fluoro-uracil], for which, in data set [1] (olaparib 0.5 μM; tested cell lines), the “Cooperation of 5FU with olaparib in cytotoxicity” value is on record as “did not cooperate with olaparib; also recorded: does not enhance cytotoxicity”.

On to `C#Cc1cn([C@H]2C[C@H](O)[C@@H](CO)O2)c(=O)[nH]c1=O` [EdUrd, 5-ethynyl-2′-deoxy-uridine], for which, in the data set with MDA-MB-231 cells [2] (24 hrs after 2 hr EdUrd pulse, flow cytometry), the “Increase of EdU+ fraction after EdUrd-pulse” value is approximately 25%. The figures for the “γH2AX (DNA damage) response” value (in [3]; in the data set with γH2AX in MCF10A cells) were “continued accumulation of DNA damage signal” and “transient increase of γH2AX levels”, respectively.

Regarding `O=c1[nH]c(=O)n([C@H]2C[C@H](O)[C@@H](CO)O2)cc1F` [FdUrd, 5-fluoro-2′-deoxyuridine], the IC50 at 24 h in [4] stood at 1.6 µM. Further, the concentration for half-maximal inhibition (IC50) in the data set with MDA-MB-231 cells [5] (setting [15]) worked out at 5.5 µM. Further, the “γH2AX (DNA damage) response” value was “induced by 24 hrs and remained at high levels at 48 hrs” in data set [3]; “induced transiently at 6 hrs of FdU exposure and declined by 48 hrs” with γH2AX in MCF10A cells. Also, in data set [6], the p53-p21 signaling response entry was “induced p53-p21 signaling”.

In the case of `COc1ccc(C2=N[C@@H](c3ccc(Cl)cc3)[C@@H](c3ccc(Cl)cc3)N2C(=O)N2CCNC(=O)C2)c(OC(C)C)c1` [Nutlin-3A], the “γH2AX (DNA damage) response” value in the data set on γH2AX in MCF10A cells is “did not induce DNA damage γH2AX marker”.

Regarding `O=c1[nH]c(=O)n([C@H]2C[C@H](O)[C@@H](CO)O2)cc1C(F)(F)F` [TFT, 5-trifluoro-2′-deoxythymidine], the “Inhibition of TS” value in [7] is 0.38 nM.

Turning to `O=C(c1cc(Cc2n[nH]c(=O)c3ccccc23)ccc1F)N1CCN(C(=O)C2CC2)CC1` [olaparib], the IC50 is 15.3 µM in the data set on MCF10A cells [8]; 17.6 µM with MDA-MB-231 cells [5] (setting [15]); 17.4 µM in the data set with MDA-MB-231 cells [5] (MDA-MB-231 (p53mt)); less than 1 µM in data set [11]; 16 to 24 µM in [1] (Homo sapiens, read-out: IC50 for cancer cells, PARPi alone). Besides, in data set [4], the IC50 at 24 h was determined as 14.5 µM. Further, the “Effect on removal of EdU” value in the data set with MDA-MB-231 cells [2] (MDA-MB-231, 0.5 μM Olaparib after 2 hr EdU pulse) is recorded as “had no effect”; in the data set with MCF10A cells [9], “significantly delayed removal of EdU”. The p53-p21 signaling response result was “p21 was not regulated; also recorded: no response was observed” in data set [10] and “induced p53-p21 signaling” in [6]. The Cell cycle effect result is recorded as “increased G2 fraction at the expense of S phase” with MDA-MB-231 cells [12] and “increased G1-population” in the data set with MCF10A cells [14]. Also, the “Median survival (time-to-arrive at 300 mm3 tumor size)” value with MDA-MB-231 tumors (50 mg/kg each drug, oral gavage) was determined as 21 days. For the same compound, in the data set with MDA-MB-231 tumors (50 mg/kg oral gavage), the Tumor growth result is “did not affect tumor growth”. Moreover, the “Median survival (time-to-arrive at 500 mm3 tumor size)” value in the data set with MIAPACA-2 tumors was found to be 21 days. Besides, the “Concentration inhibiting PARylation activity in cells” value in [13] was 100 to 500 nM and 50 to 100 nM. For the same compound, the “Concentration activating p53-p21 signaling” value in [6] (MCF10A) was found to be 200 nM. For the same compound, the “Concentration inducing p53-p21 signaling” value in data set [6] (MCF10A, 24 hrs) was in the range of 0.2 to 0.5 µM.

For the compound `Cn1ncnc1[C@H]1c2n[nH]c(=O)c3cc(F)cc(c23)N[C@@H]1c1ccc(F)cc1` [talazoparib], in the data set with MDA-MB-231 cells [12], the Cell cycle effect entry is “increased G2 fraction at the expense of S phase”. Also, the IC50 in data set [1] (Homo sapiens; read-out: IC50 for cancer cells, PARPi alone) was 2 to 4 µM. Also, the “Concentration inhibiting PARylation activity in cells” value in data set [13] was 50 nM. In addition, the p53-p21 signaling response result in [6] is recorded as “p21 induction was observed only in p53wt cells”.

The values are drawn from US12551498B2, “Treatment of P53-deficient cancers” (Health Research, Inc., priority 2019, dated 2026).
